Assay results reported in patent publication US20140377219A1, “HIV INHIBITORS” (New york Blood Center, Inc., priority 2011, published 2014).
Counter-ions that a name gives are not always drawn. Like-named read-outs stand apart in the source and are kept apart here.

Key:
MT-2 cells = assay: Cytotoxicity in MT-2 cells (XTT); type: cell-based
Procedure: Cytotoxicity of small molecules in MT-2 cells and PBMC was measured by the XTT ((sodium 3′-(1-(phenylamino)-carbonyl)-3,4-tetrazolium-bis(4-methoxy-6-nitro)benzene-sulfonic acid hydrate)) method. Briefly, for MT-2 cells, 100 μl of a small molecule at graded concentrations was added to an equal volume of cells (10^5 cells/ml) in 96-well plates followed by incubation at 37° C. for four days, which ran parallel with the neutralization assay in MT-2 (except medium was added instead of virus). In the case of PBMC, 5×10^5 cells/ml was used and the cytotoxicity was measured after seven days. […] The percentage cytotoxicity and the CC50 values were calculated as described above.

[1] = test system: laboratory-adapted HIV-1 IIIB strain; conditions: read-out: MT-2 Cells IC50 (μM ± SD); multi-cycle assay, MT-2 cells, HIV-1 IIIB
Procedure: In brief, 1×10^4 MT-2 cells were infected with HIV-1 at 100 TCID50 (50% tissue culture infective dose) (0.01MOI) in 200 μl medium in the presence or absence of small molecules at graded concentrations and incubated overnight. The culture supernatants were then removed and replaced with fresh media. On the fourth day post-infection, 100 μl of culture supernatants were collected from each well, mixed with equal volume of 5% Triton X-100 and tested for p24 antigen by sandwich-ELISA. The percent inhibition of p24 production and IC50 values were calculated by the GraphPad Prism software (GraphPad Software Inc.).

TZM-bl cells = assay: Cytotoxicity in TZM-bl cells (XTT); type: cell-based
Procedure: The cytotoxicity of small molecules in TZM-bl cells was measured by a colorimetric method using XTT (sodium 3′-(1-(phenylamino)-carbonyl)-3,4-tetrazolium-bis(4-methoxy-6-nitro)benzenesulfonic acid hydrate), a light yellowish tetrazolium dye. Briefly, 100 μl of a compound at graded concentrations was added to equal volume of cells (10^5/ml) in wells of 96-well plates followed by incubation at 37° C. for 3 days and addition of XTT (PolySciences, Inc., Warrington, Pa.).

[2] = TZM-bl cells, XTT, 3 days, read-out: TZM-bl cells CC50 (μM ± SD)
[3] = MT-2 cells, XTT, four days, read-out: MT-2 Cells CC50
[4] = at the dose given as CC50 bound

SMILES	CC50 (MT-2 cells)	IC50 [1]	CC50 (TZM-bl cells)	CC50 (TZM-bl cells; [2])	% toxicity at that dose (number in parenthesis), TZM-bl cells (TZM-bl cells)	CC50 (MT-2 cells; [3])	% toxicity at that dose (number in parenthesis), TZM-bl cells (TZM-bl cells; [4])	% toxicity at that dose (number in parenthesis), MT-2 cells (MT-2 cells; [4])	% toxicity at that dose (number in parenthesis), MT-2 cells (MT-2 cells)
Cc1nc(C(NC(=O)C(=O)Nc2ccc(Cl)cc2)C2CCNCC2)sc1CCO (stereo not shown) [Compound 11, N^1-(4-chlorophenyl)-N^2-((5-(2-hydroxyethyl)-4-methylthiazol-2-yl)(piperidin-4-yl)methyl)oxalamide.2HCl]	> 78.5 µM	30.5 ± 3.4 µM	~85.4 µM						
Cc1nc(C(NC(=O)C(=O)Nc2ccc(F)cc2F)C2CCCCN2)sc1CCO (stereo not shown) [Compound 32, N^1-(2,4-difluorophenyl)-N^2-((5-(2-hydroxyethyl)-4-methylthiazol-2-yl)(piperidin-2-yl)methyl)oxalamide.HCl]	> 105 µM	> 105 µM		> 84 µM					
Cc1nc(C(NC(=O)C(=O)Nc2ccc(F)c(Cl)c2)C2CCCCN2)sc1CCO.Cl.Cl (stereo not shown) [Compound 35, N^1-(3-chloro-4-fluorophenyl)-N^2-((5-(2-hydroxyethyl)-4-methylthiazol-2-yl)(piperidin-2-yl)methyl)oxalamide.2HCl]	~94.7 µM	19.5 ± 1.8 µM	> 75.8 µM		>75.8 (20%)				
Cc1nc(C(NC(=O)C(=O)NC2CCCCCC2)C2CCCCN2)sc1CCO (stereo not shown) [Compound 40, N^1-cycloheptyl-N^2-((5-(2-hydroxyethyl)-4-methylthiazol-2-yl)(piperidin-2-yl)methyl)oxalamide.HCl]		19.6 ± 4 µM		> 88 µM		~60 µM			
Cc1nc(C(NC(=O)C(=O)Nc2ccc(Cl)cc2)C2CCCCN2C)sc1CCO (stereo not shown) [Compound 12, N^1-(4-chlorophenyl)-N^2-((5-(2-hydroxyethyl)-4-methylthiazol-2-yl)(1-methylpiperidin-2-yl)methyl)oxalamide]				36 ± 3.3 µM					
Cc1nccn1CCCNC(=O)CCC(=O)Nc1ccc(Cl)cc1 [Compound 49, N^1-(4-chlorophenyl)-N^4-(3-(2-methyl-1H-imidazol-1-yl)propyl)succinamide. HCOOH]	> 102 µM	> 38 µM	102 µM						
Cc1nc(C(NC(=O)C(=O)Nc2ccc(F)c(F)c2)C2CCCCN2)sc1CCO.Cl.Cl (stereo not shown) [Compound 33, N^1-(3,4-difluorophenyl)-N^2-((5-(2-hydroxyethyl)-4-methylthiazol-2-yl)(piperidin-2-yl)methyl)oxalamide.2HCl]		24.1 ± 4.6 µM		> 78.2 µM		> 78.2 µM	10%		
Cc1nc(C(NC(=O)C(=O)Nc2ccc(Cl)cc2)C2CCCNC2)sc1CCO (stereo not shown) [Compound 10, N^1-(4-chlorophenyl)-N^2-((5-(2-hydroxyethyl)-4-methylthiazol-2-yl)(piperidin-3-yl)methyl)oxalamide.2HCl]	> 78.5 µM	13.1 ± 2.4 µM	~59.4 µM						
CNCC(NC(=O)C(=O)Nc1ccc(Cl)cc1)c1nc(C)c(CCO)s1 (stereo not shown) [Compound 16, N^1-(4-chlorophenyl)-N^2-(1-(5-(2-hydroxyethyl)-4-methylthiazol-2-yl)-2-(methylamino)ethyl)oxalamide.2HCl]	> 43 µM	24.3 ± 2.2 µM	16.6 ± 1 µM						
Cc1nc(C(NC(=O)C(=O)Nc2ccc(Cl)cc2)C2CCCNC2)sc1CO (stereo not shown) [Compound 7, N^1-(4-chlorophenyl)-N^2-((5-(hydroxymethyl)-4-methylthiazol-2-yl)(piperidin-3-yl)methyl)oxalamide.2HCl]	> 81 µM	12 ± 1.1 µM	~60.2 µM						
CC(C)c1nccn1CCCNC(=O)CCC(=O)Nc1ccc(Cl)cc1 [Compound 48, N^1-(4-chlorophenyl)-N^4-(3-(2-isopropyl-1H-imidazol-1-yl)propyl)succinamide. HCOOH]	> 95 µM	> 36 µM	> 95 µM						
Cc1nc(C(NC(=O)C(=O)Nc2ccc(F)cc2)C2CCCCN2)sc1CO.Cl (stereo not shown) [Compound 25, N^1-(4-fluorophenyl)-N^2-((5-(hydroxymethyl)-4-methylthiazol-2-yl)(piperidin-2-yl)methyl)oxalamide.HCl]	> 113 µM	48 ± 5.5 µM	> 90 µM				0%		
Cc1nc(C(NC(=O)C(=O)Nc2ccc(Cl)cc2)C2CCCN2)sc1CCO (stereo not shown) [Compound 15, N^1-(4-chlorophenyl)-N^2-((5-(2-hydroxyethyl)-4-methylthiazol-2-yl)(pyrrolidin-2-yl)methyl)oxalamide.HCOOH]	~42 µM	16.2 ± 1.7 µM	~4.9 µM						
Cc1nc(C(NC(=O)C(=O)NC2CCCCCC2)C2CCCCN2)sc1CO (stereo not shown) [Compound 29, N^1-cycloheptyl-N^2-((5-(hydroxymethyl)-4-methylthiazol-2-yl)(piperidin-2-yl)methyl)oxalamide.HCl]		39.3 ± 5 µM		> 90 µM		> 90 µM			
Cc1nc(C(NC(=O)C(=O)Nc2ccc(F)c(Cl)c2)C2CCCCN2)sc1CO.Cl.Cl (stereo not shown) [Compound 24, N^1-(3-chloro-4-fluorophenyl)-N^2-((5-(hydroxymethyl)-4-methylthiazol-2-yl)(piperidin-2-yl)methyl)oxalamide.2HCl]	> 77.8 µM	9.5 ± 1.4 µM	> 77.8 µM		>77.8 (0%)				
Cc1nc(C(NC(=O)C(=O)Nc2ccc(Cl)cc2)C2CCCCN2)sc1CCO.O=CO (stereo not shown) [Compound 30, N^1-(4-chlorophenyl)-N^2-((5-(2-hydroxyethyl)-4-methylthiazol-2-yl)(piperidin-2-yl)methyl)oxalamide.HCOOH]		4.2 ± 0.3 µM		32.8 ± 0.6 µM		> 62 µM		0%	
Cc1ccc(NC(=O)C(=O)NC(c2nc(C)c(CCO)s2)C2CCCCN2)c(F)c1 (stereo not shown) [Compound 37, N^1-(2-fluoro-4-methylphenyl)-N^2-((5-(2-hydroxyethyl)-4-methylthiazol-2-yl)(piperidin-2-yl)methyl)oxalamide.2HCl]		45.8 ± 3.5 µM		> 78.8 µM		> 78.8 µM			
CC(=O)c1ccc(NC(=O)C(=O)NC(c2nc(C)c(CO)s2)C2CCCCN2)cc1 (stereo not shown) [Compound 23, N^1-(4-acetylphenyl)-N^2-((5-(hydroxymethyl)-4-methylthiazol-2-yl)(piperidin-2-yl)methyl)oxalamide.HCl]	> 107 µM	~107 µM	> 86 µM						
Cc1nc(C(NC(=O)C(=O)Nc2ccc(F)cc2)C2CCCCN2)sc1CCO (stereo not shown) [Compound 36, N^1-(4-fluorophenyl)-N^2-((5-(2-hydroxyethyl)-4-methylthiazol-2-yl)(piperidin-2-yl)methyl)oxalamide.HCl]	~109 µM		> 88 µM						
Cc1nc(C(NC(=O)C(=O)Nc2ccc(Cl)cc2)C2CCNCC2)sc1CO (stereo not shown) [Compound 8, N^1-(4-chlorophenyl)-N^2-((5-(hydroxymethyl)-4-methylthiazol-2-yl)(piperidin-4-yl)methyl)oxalamide.2HCl]	> 81 µM	29.8 ± 3.5 µM	~81 µM						
Cc1nc(C(NC(=O)CCC(=O)Nc2ccc(Cl)cc2)C2CCCN2)sc1CO (stereo not shown) [Compound 41, N^1-(4-chlorophenyl)-N^4-((5-(hydroxymethyl)-4-methylthiazol-2-yl)(pyrrolidin-2-yl)methyl)succinamide.HCl]	> 85 µM	> 42 µM	> 85 µM						
COC(=O)[C@@H]1C[C@@H](NC(=O)C(=O)Nc2ccc(Cl)cc2)[C@H](c2ccccc2)N1 [Compound 18, (2S,4R,5S)-methyl 4-(2-(4-chlorophenylamino)-2-oxoacetamido)-5-phenyl pyrrolidine-2-carboxylate]		> 24.9 µM		> 99.6 µM		> 99.6 µM			
Cc1nc(C(NC(=O)CCC(=O)Nc2ccc(Cl)cc2)C2CCCCN2)sc1CO.Cl (stereo not shown) [Compound 51, N^1-(4-chlorophenyl)-N^4-((5-(hydroxymethyl)-4-methylthiazol-2-yl)(piperidin-2-yl)methyl)succinamide.HCl]		~40 µM		> 82 µM		> 82 µM	0%	20%	
Cc1ccc(NC(=O)C(=O)NC(c2nc(C)c(CO)s2)C2CCCCN2)c(F)c1 (stereo not shown) [Compound 26, N^1-(2-fluoro-4-methylphenyl)-N^2-((5-(hydroxymethyl)-4-methylthiazol-2-yl)(piperidin-2-yl)methyl)oxalamide.HCl]		~66 µM		> 88 µM		> 109 µM			
Cc1nc(C(NC(=O)C(=O)Nc2ccc(F)cc2F)C2CCCCN2)sc1CO (stereo not shown) [Compound 21, N^1-(2,4-difluorophenyl)-N^2-((5-(hydroxymethyl)-4-methylthiazol-2-yl)(piperidin-2-yl)methyl)oxalamide.HCl]		~110 µM		> 87 µM		> 110 µM			
Cc1nc(C(NC(=O)C(=O)Nc2ccc(Cl)cc2)C2CCCCN2)sc1CCO.O=CO (stereo not shown) [Compound 9, N^1-(4-chlorophenyl)-N^2-((5-(2-hydroxyethyl)-4-methylthiazol-2-yl)(piperidin-2-yl)methyl)oxalamide.HCOOH]	> 62 µM	4.2 ± 0.2 µM							0%
